Laboratory results as given in the NIST ThermoML archive (doi:10.1021/acs.jced.9b00560).
± gives the expanded uncertainty stated by the source.

Assays:
[1] = Crystal; DSC
[2] = Molar enthalpy of transition or fusion; details: Crystal; DSC

Triple point temperature [1]: 357.24 ± 1.2 K
Molar enthalpy of transition or fusion [2]: 4.57 ± 0.215 kcal/mol
Compound: O=C1C=CC(=O)N1c1ccccc1Br [1-(2-bromophenyl)-pyrrole-2,5-dione]
